Patent US20120071537A1, “New Oral Formulation” (priority 1998, published 2012)

Key:
equine intestine = assay: Gastro-intestinal motility after colic surgery (post-operative ileus) in horses; type: in vivo; details: i.v. or i.m., 0.01 to 10 mg/kg every 8 to 24 h
Description: 20 horses having colic syndrome are submitted to abdominal surgery. During surgery supportive therapy is applied to them. At the end of surgery, a specific 5-HT4 receptor agonist or partial agonist, e.g., Compound A, is administered i.v. or i.m., e.g. at a dose of from 0.01 to 10 mg/kg. This dose is repeated every 8 to 24 h until spontaneous defecation is observed. Gastro-intestinal motility is evaluated based e.g. on the presence or absence of gastric reflux as determined by nasogastric intubation, occurrence of borborygmi and timing of defecation after the first injection of the test compound.

[1] = tested on: sensory perception of rectal distension; assay: Colonic perfusion manometry with balloon distension, sensation threshold in fasted healthy volunteers; type: in vivo; details: 2-12 mg p.o., assessed 30 to 90 min after dosing
Description: Intraluminal pressures and reflexes in the last 60 cm of the colon of 10 fasted healthy volunteers are measured by means of perfusion manometry. Three latex balloons positioned at 50, 30 and 10 cm, allow volume stimulation. Basal values of colonic intraluminal pressures and reflexes are established. Subsequently, reflex inhibitory relaxations of the internal anal sphincter is triggered by inflating the balloons by 10 ml increments up to a maximum volume of 150 ml. During the inflation phase, two parameters are evaluated: a) the reflux threshold (volume able to induce a substantial pressure decrease of the internal anal sphincter); and b) the sensation threshold (volume able to induce a conscious defecation reflex). After the basal recordings, each subject is given a 5-HT4 receptor agonist, partial agonist or antagonist, e.g., Compound A, p.o. and 30 to 90 min later the colonic intraluminal pressure and reflexes are assessed again by the same method.

rectal afferents = assay: Single unit activity of rectal afferent fibres during barostat-controlled rectal distension in decerebrate cats; type: in vivo; details: i.v., incremental doses from 0.15 to 1.2 mg/kg
Description: Decerebrate, anaesthesia-free cats under continuous monitoring of blood pressure are paralysed by alcuronium chloride dissolved in rheomacrodex i.v. (200 μg/kg initially and supplementary doses of 100 μg/kg, if necessary), and artificially ventilated. Single unit activity of afferent fibres are recorded in a monopolar fashion from peripheral endings of centrally cut filaments of sacral dorsal roots. Tension receptors are identified by probing of their receptive fields in the wall of the mobilised rectum. Thereafter, the response of the units to barostat-controlled rectal ramp-distension is determined. The quantitative response characteristics of the units is evaluated with respect to distension pressure and resulting rectal diameter. Alternatively, the response of the units to pressure-induced peristalsis is measured. After obtaining 2 distension profiles (5 min each) and/or 10 min of peristalsis under control conditions, a 5-HT4 receptor agonist, partial agonist or antagonist, e.g., Compound A, or vehicle is applied i.v. and the protocol is repeated. Subsequently, the activity of additional units is recorded in the presence of a 5-HT4 receptor agonist, partial agonist or antagonist, e.g., Compound A, or vehicle according to the distension/peristalsis protocol. […]

[2] = Acid sensitivity (degradation under slightly acidic conditions); type: physicochemical
Text: Examples of compounds are known in the art and may be ascertained by routine experimentation.
(§1) which is referred hereinafter as Compound A, or a pharmaceutically acceptable salt form thereof, e.g., the hydrogen maleate (hereinafter “hml”) salt.

[3] = Dissolution characteristics of oral tablet composition in water or USP buffers pH 6.8 and 7.5; type: physicochemical; details: composition comprising Tegaserod
Text: In a further aspect the present invention provides a pharmaceutical oral, e.g., tablet, composition comprising one of the active agents cited above, e.g., a 5-HT4 agonist, partial agonist or antagonist, e.g., Tegaserod, said composition having dissolution characteristics in water or in USP buffers pH 6.8 and 7.5 of
For example a composition according to the invention, e.g., comprising Tegaserod as the active agent, may have dissolution characteristics in water or in USP buffers pH 6.8 and 7.5 of: […]

Solubility in water = type: physicochemical; details: at 25° C. in water
Description: By “poorly soluble” is meant an active agent having a solubility in aqueous media more than 0.001% and less than 10%, e.g., less than 1%, e.g., less than 0:1%, e.g., less than 0.05%, e.g., less than 0.02%, at room temperature, e.g., 25° C.
as §1

CCCCCNC(=N)NN=Cc1c[nH]c2ccc(OC)cc12 [Compound A, 3-(5-methoxy-1H-indol-3-yl-methylene)-N-pentylcarbazimidamide]
restoration of normal motility function of the equine intestine (equine intestine): effective in restoring normal motility function
sensation threshold (volume able to induce a conscious defecation reflex) [1]: significantly reduced
distension pressure at which the most prominent inhibition of firing occurs (rectal afferents): 50 mmHg
dose giving half-maximal reduction of the firing rate of rectal afferents (rectal afferents): about 0.7 mg/kg
acid sensitivity [2]: acid sensitive
amount (percentage) dissolved ([3]; time 5 minutes): 48.9 percentage
amount (percentage) dissolved ([3]; time 15 minutes): 95.5 percentage
amount (percentage) dissolved ([3]; time 30 minutes): 99.7 percentage
amount (percentage) dissolved ([3]; time 60 minutes): 100 percentage
solubility (Solubility in water): about 0.02%
